{"source": "patent US9371337B2", "about": "“β-lactamase inhibitors” (The Regents of the University of California, priority 2011, dated 2016)", "key": {"[1]": {"system": "E. cloacae, AmpC-overproducing", "test": "MIC of third-generation cephalosporins alone and with compounds (Table 6)", "format": "cell-based, Enterobacter cloacae", "settings": "antibiotic alone", "experimental": "(§1) The anti-resistance activity of inhibitors was investigated by the determination of the minimum inhibitory concentrations (MICs) of the β-lactam/inhibitor combination necessary to inhibit the growth of clinically-isolated bacteria resistant to third-generation cephalosporins via expression of class A or class C β-lactamases (Table 6).\n(§2) Susceptibility testing was performed and interpreted following the guidelines of CLSI. (Clinical and Laboratory Standards Institute, Performance standards for antimicrobial susceptibility testing, 20th Informational Supplement, M100-S20 2010) The compounds were dissolved in 50% DMSO, and dilutions were performed using Muller-Hinton medium. An adequate final concentration was obtained to determine the minimum inhibitory concentrations (MICs). The concentration of DMSO was maintained below 5%. The inhibitors were tested for synergy with the third-generation β-lactams ceftazidime and cefotaxime against several clinical bacteria. The ratio of β-lactams to inhibitors was 1:4. Each value reported reflects the average of three independent experiments. […] The Friedman's test and the Wilcoxon signed rank test were used to compare MIC values. Statistical significance was established at p<0.05.\n(§3) Table 6. MICs (μg/ml) of third-generation cephalosporins alone and in association with the compounds (ratio 1/4) for clinical bacteria. CTX, cefotaxime and CAZ, ceftazidime. ^1, AmpC-overproducing bacteria; ^2, CTX-M-14-producing E. coli; ^3, KPC-2-producing K. pneumoniae; ^4, OXA-48-producing K. pneumoniae; ^5, NDM-1-producing C. freundii."}, "[2]": {"system": "E. cloacae 135, AmpC-overproducing", "test": "MIC of third-generation cephalosporins alone and with compounds (Table 6)", "format": "cell-based, Enterobacter cloacae", "settings": "antibiotic alone", "experimental": "as §1, §2, §3"}, "[3]": {"system": "E. coli, AmpC-overproducing", "test": "MIC of third-generation cephalosporins alone and with compounds (Table 6)", "format": "cell-based, Escherichia coli", "settings": "antibiotic alone", "experimental": "as §1, §2, §3"}, "[4]": {"system": "E. coli 146, AmpC-overproducing", "test": "MIC of third-generation cephalosporins alone and with compounds (Table 6)", "format": "cell-based, Escherichia coli", "settings": "antibiotic alone", "experimental": "as §1, §2, §3"}, "[5]": {"system": "E. coli 142, AmpC-overproducing", "test": "MIC of third-generation cephalosporins alone and with compounds (Table 6)", "format": "cell-based, Escherichia coli", "settings": "antibiotic alone", "experimental": "as §1, §2, §3"}, "[6]": {"system": "CTX-M-14-producing E. coli", "test": "MIC of third-generation cephalosporins alone and with compounds (Table 6)", "format": "cell-based, Escherichia coli", "settings": "antibiotic alone", "experimental": "as §1, §2, §3"}, "[7]": {"system": "E. coli 144, AmpC-overproducing", "test": "MIC of third-generation cephalosporins alone and with compounds (Table 6)", "format": "cell-based, Escherichia coli", "settings": "antibiotic alone", "experimental": "as §1, §2, §3"}, "[8]": {"system": "E. coli R1, AmpC-overproducing", "test": "MIC of third-generation cephalosporins alone and with compounds (Table 6)", "format": "cell-based, Escherichia coli", "settings": "antibiotic alone", "experimental": "as §1, §2, §3"}, "[9]": {"system": "E. coli 145, AmpC-overproducing", "test": "MIC of third-generation cephalosporins alone and with compounds (Table 6)", "format": "cell-based, Escherichia coli", "settings": "antibiotic alone", "experimental": "as §1, §2, §3"}, "[10]": {"system": "C. freundii, AmpC-overproducing", "test": "MIC of third-generation cephalosporins alone and with compounds (Table 6)", "format": "cell-based, Citrobacter freundii", "settings": "antibiotic alone", "experimental": "as §1, §2, §3"}, "[11]": {"system": "NDM-1-producing C. freundii", "test": "MIC of third-generation cephalosporins alone and with compounds (Table 6)", "format": "cell-based, Citrobacter freundii", "settings": "antibiotic alone", "experimental": "as §1, §2, §3"}, "[12]": {"system": "C. freundii 101, AmpC-overproducing", "test": "MIC of third-generation cephalosporins alone and with compounds (Table 6)", "format": "cell-based, Citrobacter freundii", "settings": "antibiotic alone", "experimental": "as §1, §2, §3"}, "[13]": {"system": "E. coli producing plasmid-mediated class A β-lactamase CTX-M-14", "test": "MIC of third-generation cephalosporins alone and with compounds 4 or 9 (Table 3)", "format": "cell-based, Escherichia coli", "settings": "antibiotic alone", "source_text": "(§4) Antimicrobial activity was investigated quantitatively to determine the minimum inhibitory concentrations (MICs) of the β-lactam/inhibitor combination necessary to inhibit the bacterial growth (Table 3). The MICs of β-lactams alone against the strains corresponded to a high level of resistance according to Clinical and Laboratory Standards Institute (CLSI) standards. (Clinical and Laboratory Standards Institute, Performance standards for antimicrobial susceptibility testing, 20th Informational Supplement, M100-S20 2010) The compounds had no measurable antibiotic activity when used alone.\n(§5) Susceptibility testing was performed and interpreted following the guidelines of CLSI. (Clinical and Laboratory Standards Institute, Performance standards for antimicrobial susceptibility testing, 20th Informational Supplement, M100-S20 2010) The compounds were dissolved in 50% DMSO, and dilutions were performed using Muller-Hinton medium. An adequate final concentration was obtained to determine the minimum inhibitory concentrations (MICs). The concentration of DMSO was maintained below 5%. The inhibitors were tested for synergy with the third-generation β-lactams ceftazidime and cefotaxime against several clinical bacteria. […] Each value reported reflects the average of three independent experiments. […] A Klebsiella pneumoniae isolate produced the inducible plasmid-mediated class C enzyme DHA-1. The Friedman's test and the Wilcoxon signed rank test were used to compare MIC values. Statistical significance was established at p<0.05."}, "[14]": {"system": "E. coli overproducing chromosomally-mediated class C β-lactamase", "test": "MIC of third-generation cephalosporins alone and with compounds 4 or 9 (Table 3)", "format": "cell-based, Escherichia coli", "settings": "antibiotic alone", "source_text": "as §4, §5"}, "[15]": {"system": "P. aeruginosa overproducing chromosomally-mediated class C β-lactamase", "test": "MIC of third-generation cephalosporins alone and with compounds 4 or 9 (Table 3)", "format": "cell-based, Pseudomonas aeruginosa", "settings": "antibiotic alone", "source_text": "as §4, §5"}, "[16]": {"system": "C. freundii overproducing chromosomally-mediated class C β-lactamase", "test": "MIC of third-generation cephalosporins alone and with compounds 4 or 9 (Table 3)", "format": "cell-based, Citrobacter freundii", "settings": "antibiotic alone", "source_text": "as §4, §5"}, "[17]": {"system": "P. aeruginosa, AmpC-overproducing", "test": "MIC of third-generation cephalosporins alone and with compounds (Table 6)", "format": "cell-based, Pseudomonas aeruginosa", "settings": "antibiotic alone", "experimental": "as §1, §2\nTable 6. MICs (μg/ml) of third-generation cephalosporins alone and in association with the compounds (ratio 1/4) for clinical bacteria. […]"}, "[18]": {"system": "K. pneumoniae, AmpC-overproducing", "test": "MIC of third-generation cephalosporins alone and with compounds (Table 6)", "format": "cell-based, Klebsiella pneumoniae", "settings": "antibiotic alone", "experimental": "as §1, §2, §3"}, "[19]": {"system": "OXA-48-producing K. pneumoniae", "test": "MIC of third-generation cephalosporins alone and with compounds (Table 6)", "format": "cell-based, Klebsiella pneumoniae", "settings": "antibiotic alone", "experimental": "as §1, §2, §3"}, "[20]": {"system": "E. cloacae overproducing chromosomally-mediated class C β-lactamase", "test": "MIC of third-generation cephalosporins alone and with compounds 4 or 9 (Table 3)", "format": "cell-based, Enterobacter cloacae", "settings": "antibiotic alone", "source_text": "as §4, §5"}, "[21]": {"system": "K. pneumoniae producing the plasmid-mediated class C β-lactamase DHA-1", "test": "MIC of third-generation cephalosporins alone and with compounds 4 or 9 (Table 3)", "format": "cell-based, Klebsiella pneumoniae", "settings": "antibiotic alone", "source_text": "as §4, §5"}, "[22]": {"system": "AmpC-overproducing Escherichia coli strain 4", "test": "Mouse model of bacteremia and sepsis, survival", "format": "in vivo, OF1 mice", "settings": "120 h post infection; ip at 0.5, 3.5, 6.5 h; imipenem 50 mg/kg, cefotaxime 50 mg/kg, cefotaxime:CR161 50:200 mg/kg", "experimental": "FIG. 17. Percentage of survival of mice infected with AmpC-overproducing Escherichia coli over the course of 5 days (120 h). Mice were inoculated by intraperitoneal injection with AmpC-overproducing Escherichia coli strain 4 (1±0.5 10^9 colony-forming units) and treated at 0.5, 3.5, 6.5 h after infection by intraperitoneal injection of 50 mg/kg imipenem (□, n=20), 50:200 mg/kg cefotaxime:CR161 combination (▪, n=17), 50 mg/kg cefotaxime (●, n=20) or sterile isotonic saline (◯, n=20).\nEfficacy in a mouse model of infection. We had not observed such substantial reversal of bacterial resistance to β-lactams, across such a broad spectrum of clinical isolates, for previous series of boronic acid inhibitors of β-lactamase; indeed, this lack of efficacy had motivated this study. These new cell-culture MIC values inspired us to investigate the efficacy of one of these compounds in a mouse model of bacteremia and sepsis. […] Mice were treated with cefotaxime alone, cefotaxime combined with compound CR161, with sterile isotonic saline, and with imipenem as a reference treatment of systemic infections by cephalosporin-resistant enterobacteriaceae (FIG. 17); 20 mice were used in each clade. […]\nOF1 mice 4-5 weeks of age and weighing 20-25 g were used in this study. […] The survival of mice in each group was monitored every 6 h for 5 days after infection. […]"}}, "data": [{"smiles": "CC(C)(O/N=C(\\C(=O)N[C@@H]1C(=O)N2C(C(=O)[O-])=C(C[n+]3ccccc3)CS[C@H]12)c1csc(N)n1)C(=O)O", "note": "[Ceftazidime]", "values": [{"measurement": "MIC, cephalosporin alone", "setting": "[1]", "value": 64, "unit": "µg/mL"}, {"measurement": "MIC, cephalosporin alone", "setting": "[2]", "value": 128, "unit": "µg/mL"}, {"measurement": "MIC, cephalosporin alone", "setting": "[3]", "value": 128, "unit": "µg/mL"}, {"measurement": "MIC, cephalosporin alone", "setting": "[4]", "value": 64, "unit": "µg/mL"}, {"measurement": "MIC, cephalosporin alone", "setting": "[5]", "value": 32, "unit": "µg/mL"}, {"measurement": "MIC, cephalosporin alone", "setting": "[6]", "value": 2, "unit": "µg/mL"}, {"measurement": "MIC, cephalosporin alone", "setting": "[7]", "value": 64, "unit": "µg/mL"}, {"measurement": "MIC, cephalosporin alone", "setting": "[8]", "value": 8, "unit": "µg/mL"}, {"measurement": "MIC, cephalosporin alone", "setting": "[9]", "value": 128, "unit": "µg/mL"}, {"measurement": "MIC, cephalosporin alone", "setting": "[10]", "value": 64, "unit": "µg/mL"}, {"measurement": "MIC, cephalosporin alone", "setting": "[11]", "value": 512, "unit": "µg/mL"}, {"measurement": "MIC, cephalosporin alone", "setting": "[12]", "value": 128, "unit": "µg/mL"}, {"measurement": "MIC, cephalosporin alone", "setting": "[13]", "value": 2, "unit": "µg/mL"}, {"measurement": "MIC, cephalosporin alone", "setting": "[14]", "value": 64, "unit": "µg/mL"}, {"measurement": "MIC, cephalosporin alone", "setting": "[15]", "value": 32, "unit": "µg/mL"}, {"measurement": "MIC, cephalosporin alone", "setting": "[16]", "value": 64, "unit": "µg/mL"}, {"measurement": "MIC, cephalosporin alone", "setting": "[17]", "value": 32, "unit": "µg/mL"}, {"measurement": "MIC, cephalosporin alone", "setting": "[18]", "value": 32, "unit": "µg/mL"}, {"measurement": "MIC, cephalosporin alone", "setting": "[19]", "value": 256, "unit": "µg/mL"}, {"measurement": "MIC, cephalosporin alone", "setting": "[20]", "value": 64, "unit": "µg/mL"}, {"measurement": "MIC, cephalosporin alone", "setting": "[21]", "value": 32, "unit": "µg/mL"}]}, {"smiles": "C[C@@H](O)[C@H]1C(=O)N2C(C(=O)O)=C(SCCN=CN)C[C@H]12", "note": "[Imipenem, imipenem]", "values": [{"measurement": "survival", "setting": "[22]", "value": 90, "unit": "%"}]}]}
